Test results: US20250269039A1, “THERAPEUTIC-OLIGONUCLEOTIDES ACTIVATED BY NUCLEASES” (priority 2020, published 2025)
In brackets after ≈: the same amount, converted by molar mass. Like-named read-outs stand apart in the source and are kept apart here.

How the values were obtained:
[1] = system: S. aureus ATCC 1707 (MRSA); assay: Broth microdilution MIC and growth inhibition; type: cell-based, Staphylococcus aureus; conditions: for MIC: 18 h, TOUCAN as NA equivalent
Description: (§1) Bacteria strains. S. aureus NCTC 12493 (MRSA), S. aureus ATCC 29213 (MSSA), S. aureus ATCC 43300 (MRSA), S. aureus ATCC 1707 (MRSA), S. aureus ATCC 1717 (MRSA), S. aureus ATCC 1747 (MRSA), S. aureus ATCC 1761 (MRSA), S. aureus ATCC 1766 (MRSA), S. aureus ATCC 1768 (MRSA), S. epidermidis ATCC 35984, E. coli ATCC 25922, K. pneumoniae ATCC 13883, P. mirabilis ATCC 25933, S. enterica ATCC 14028 and P. aeruginosa ATCC 10145 strains were used in this study. Bacteria were initially inoculated onto tryptone soy agar with 5% defibrinated sheep blood (Thermo Fisher Scientific, Inc., Waltham, MA, USA) and incubated at 37° C. for 24 hours. Then, single colonies of each strain were transferred to tryptone soy broth (Thermo Fisher Scientific) for the nuclease activity assay or antimicrobial susceptibility testing, respectively.
(§2) Antimicrobial susceptibility testing. Minimal inhibitory concentrations (MIC) of all nucleoside analogues and TOUCANs against each bacteria strain were determined using broth microdilution method. A single colony obtained from overnight culture on tryptone soy agar with 5% defibrinated sheep blood was inoculated in cation-adjusted Mueller Hinton Broth and adjusted to 10^6 CFU/mL. TOUCANs were prepared in PBS+/+ (treatment) and serial dilutions were made in 96-well polystyrene round bottom microwell plates with 50 μL final volume for each concentration. PBS+/+ was used as untreated control. Next, 50 μL bacteria solutions were added to each well to a final bacteria concentration of 5×10^5 CFU/mL. Plates were incubated at 37° C. in Cytation 1 Cell Imaging Multimode Reader. Growth curves were obtained by measuring optical densities at 600 nm every 10 minutes for 18 hours using Cytation 1 Cell Imaging Multimode Reader. In addition, visual inspection of the plates was carried out after 18 hours and photographs were taken. MICs were defined as the lowest drug concentration in the microwell at which bacterial growth was not visible at the end of the incubation period. Besides MIC determination, specificity of TOUCAN 7mGe was also shown with subcultures on chromogenic media. For this purpose, 5 μL of different concentrations of each strain were inoculated onto CHROM agar Orientation Media (Becton Dickinson) and the bacterial growth of each bacteria strain tested was observed by naked eye after incubation at 37° C. for 24 hours. Finally, photographs of the chromogenic media were taken.

[2] = system: S. aureus ATCC 1717 (MRSA); assay: Broth microdilution MIC and growth inhibition; type: cell-based, Staphylococcus aureus; conditions: for MIC: 18 h, TOUCAN as NA equivalent
Description: as §1, §2

[3] = system: S. aureus ATCC 1747 (MRSA); assay: Broth microdilution MIC and growth inhibition; type: cell-based, Staphylococcus aureus; conditions: for MIC: 18 h, TOUCAN as NA equivalent
Description: as §1, §2

[4] = system: S. aureus ATCC 1761 (MRSA); assay: Broth microdilution MIC and growth inhibition; type: cell-based, Staphylococcus aureus; conditions: for MIC: 18 h, TOUCAN as NA equivalent
Description: as §1, §2

[5] = system: S. aureus ATCC 1766 (MRSA); assay: Broth microdilution MIC and growth inhibition; type: cell-based, Staphylococcus aureus; conditions: for MIC: 18 h, TOUCAN as NA equivalent; for growth inhibition, dose response: ATCC-1766 (MRSA), FIGS. 5e-f
Description: as §1, §2

[6] = system: S. aureus ATCC 1768 (MRSA); assay: Broth microdilution MIC and growth inhibition; type: cell-based, Staphylococcus aureus; conditions: for MIC: 18 h, TOUCAN as NA equivalent
Description: as §1, §2

[7] = system: S. aureus ATCC 29213 (MSSA); assay: Broth microdilution MIC and growth inhibition; type: cell-based, Staphylococcus aureus
Description: as §1, §2

[8] = system: S. aureus ATCC 43300 (MRSA); assay: Broth microdilution MIC and growth inhibition; type: cell-based, Staphylococcus aureus; conditions: for MIC: 18 h, TOUCAN as NA equivalent
Description: as §1, §2

[9] = system: S. aureus NCTC 12493 (MRSA); assay: Broth microdilution MIC and growth inhibition; type: cell-based, Staphylococcus aureus
Description: as §1, §2

E. coli ATCC 25922 = assay: Broth microdilution MIC and growth inhibition (control bacteria); type: cell-based, Escherichia coli; conditions: for MIC: TOUCAN as NA equivalent
Description: as §1, §2

P. mirabilis ATCC 25933 = assay: as above; type: cell-based, Proteus mirabilis; conditions: for MIC: TOUCAN as NA equivalent
Description: as §1, §2

[10] = Staphylococcus aureus, read-out: MIC

`O=c1[nH]c(=O)n([C@H]2C[C@H](O)[C@@H](CO)O2)cc1F` [Floxuridine, reference compound] was tested, and the MIC [1, 10] was 0.04 µg/mL, the MIC [2, 10] was 0.08 µg/mL and the MIC [3, 10] was 0.005 µg/mL. It also gave an MIC [4, 10] of 0.005 µg/mL, an MIC ([5]; Staphylococcus aureus, S. aureus ATCC 1766 (MRSA), read-out: MIC) of 0.04 µg/mL and an MIC [6, 10] of 0.04 µg/mL. For the same compound, the MIC ([7]; Staphylococcus aureus, S. aureus ATCC 29213 (MSSA), 18 h, TOUCAN as NA equivalent, read-out: MIC) was 0.08 µg/mL, the MIC ([7]; Staphylococcus aureus, Table 1, S. aureus ATCC 29213, read-out: MIC) was 0.08 µg/mL (≈ 0.325 µM) and the “% Growth inhibition” value ([7]; Table 1, S. aureus ATCC 29213, mean ± SD, n = 3) was 93.1 ± 0.3%. The MIC [8, 10] was 0.04 µg/mL, the MIC ([9]; Staphylococcus aureus, S. aureus NCTC 12493 (MRSA), 18 h, TOUCAN as NA equivalent, read-out: MIC) was 0.32 µg/mL and the MIC ([9]; Staphylococcus aureus, Table 1, S. aureus NCTC 12493, read-out: MIC) was 0.32 µg/mL (≈ 1.3 µM). The “% Growth inhibition” value ([9]; Table 1, S. aureus NCTC 12493, mean ± SD, n = 3) was 87.9 ± 0.4%, the MIC (E. coli ATCC 25922; Escherichia coli, ATCC25922, 18 h, read-out: MIC) was 20 µg/mL and the MIC (P. mirabilis ATCC 25933; Proteus mirabilis, ATCC25933, 18 h, read-out: MIC) was 5 µg/mL.
In the case of mU-mU-mU-mU-T-T-Fx [TOUCAN 7mFx], the “TOUCAN MIC/NA MIC TOUCAN Efficacy Ratio (TER)” value [1] is reported as 125, the MIC [1] is reported as 5 µg/mL and the “TOUCAN % Growth inhibition” value ([1]; mean ± SD, n = 3) is reported as 94.6 ± 0.08%. The “TOUCAN MIC/NA MIC TOUCAN Efficacy Ratio (TER)” value [2] was 125, the MIC [2] was 10 µg/mL and the “TOUCAN % Growth inhibition” value ([2]; mean ± SD, n = 3) was 94.5 ± 0.04%. For the same compound, the “TOUCAN MIC/NA MIC TOUCAN Efficacy Ratio (TER)” value [3] was 500, the MIC [3] was 2.5 µg/mL and the “TOUCAN % Growth inhibition” value ([3]; mean ± SD, n = 3) was 92.8 ± 0.7%. The “TOUCAN MIC/NA MIC TOUCAN Efficacy Ratio (TER)” value [4] was 500, the MIC [4] was 2.5 µg/mL and the “TOUCAN % Growth inhibition” value ([4]; mean ± SD, n = 3) was 93.9 ± 0.05%. For the same compound, the “growth inhibition, dose response” value ([5]; 0.31 μg/mL) was “partial inhibition”, the “growth inhibition, dose response” value ([5]; concentrations from 0.62 to 10 μg/mL) was “efficient inhibition” and the “TOUCAN MIC/NA MIC TOUCAN Efficacy Ratio (TER)” value ([5]; S. aureus ATCC 1766 (MRSA)) was 15.5. The MIC ([5]; S. aureus ATCC 1766 (MRSA)) was 0.62 µg/mL, the “TOUCAN % Growth inhibition” value ([5]; S. aureus ATCC 1766 (MRSA), mean ± SD, n = 3) was 93.6 ± 0.1% and the “TOUCAN MIC/NA MIC TOUCAN Efficacy Ratio (TER)” value [6] was 62.5. The MIC [6] was 2.5 µg/mL, the “TOUCAN % Growth inhibition” value ([6]; mean ± SD, n = 3) was 93.2 ± 0.3% and the “TOUCAN MIC/NA MIC TOUCAN Efficacy Ratio (TER)” value ([7]; S. aureus ATCC 29213 (MSSA)) was 250. For the same compound, the MIC ([7]; S. aureus ATCC 29213 (MSSA), 18 h, TOUCAN as NA equivalent) was 20 µg/mL, the “TOUCAN % Growth inhibition” value ([7]; S. aureus ATCC 29213 (MSSA), mean ± SD, n = 3) was 92.3 ± 0.09% and the “TOUCAN MIC/NA MIC TOUCAN Efficacy Ratio (TER)” value [8] was 1000. The MIC [8] was 40 µg/mL, the “TOUCAN % Growth inhibition” value ([8]; mean ± SD, n = 3) was 92.8 ± 0.7% and the “TOUCAN MIC/NA MIC TOUCAN Efficacy Ratio (TER)” value ([9]; S. aureus NCTC 12493 (MRSA)) was 125. For the same compound, the MIC ([9]; S. aureus NCTC 12493 (MRSA), 18 h, TOUCAN as NA equivalent) was 40 µg/mL, the “TOUCAN % Growth inhibition” value ([9]; S. aureus NCTC 12493 (MRSA), mean ± SD, n = 3) was 91.5 ± 0.00% and the MIC (E. coli ATCC 25922; 18 h) was over 40 µg/mL. For the same compound, the “TOUCAN % Growth inhibition” value (E. coli ATCC 25922; mean ± SD, n = 3) was 0 ± 0.00%, the MIC (P. mirabilis ATCC 25933; 18 h) was over 40 µg/mL and the “TOUCAN % Growth inhibition” value (P. mirabilis ATCC 25933; mean ± SD, n = 3) was 45.5 ± 0.4%.
